The text below walks through data of publication PMC13083723 (Patterns, 2026).

Structures can show the parent of a compound that is named as a salt.

System in the first test: not given
Assay: not given
Conditions: read-out: AC50 (value); cited from earlier work.
Turning to `CN(C)CCCN1c2ccccc2Sc2ccc(C(F)(F)F)cc21` [TRIFLUPROMAZINE HYDROCHLORIDE], the AC50 is 3 nM.

The next test has as its system Vero-E6 cells. Description: cells.
Details: not given
Format: cell-based.
As for `COc1ccc2[nH]c3c(-c4cccc5ccccc45)nccc3c2c1` [SP-141, reference compound], the result_ITMP amounted to 16.13 percent effect. On the same count and under the same terms, the value for `CCc1cc(Cl)c(OC)c(C(=O)NC[C@@H]2CCCN2CC)c1O` [eticlopride, reference compound] was 41.39 percent effect.

Consider `CC(COc1ccccc1Cc1ccccc1)N1CCCCC1` (stereo not shown) [benproperine, reference compound], for which the PLD propensity entry is recorded as “high PLD propensity”.

Still in this test, the particulars now being: Chlorocebus sabaeus, Vero C1008, 24 h, read-out: PLD_Effect(%) VERO-E6.
Turning to `CN(CCc1ccc(Cl)c(Cl)c1)CCN1CCCC1` [BD-1008], the activation at 10 µM is 51.3%. As to `O=C(O[C@H]1CN2CCC1CC2)N(Cc1cc(F)c(F)c(F)c1)c1cccc(F)c1` [Tarafenacin (D-tartrate)], the activation at 10 µM worked out at 71.4%. On to `O=C(CN1C2=NCCN2c2ccccc21)c1ccc(-c2ccccc2)cc1` [CCT-031374], for which the activation at 10 µM turned out to be 53.9%. As for `CCSc1ccc2c(c1)N(CCCN1CCN(C)CC1)c1ccccc1S2` [thiethylperazine], the activation at 10 µM was 59.1%. The same measure, in the same setting: the value for `COc1cccc(CCc2ccccc2OCC[C@@H]2C[C@@H](O)CN2C)c1` [R-96544] was 90.4%.

As to `CCCCN(CCCC)CCC(O)c1cc2c(Cl)cc(Cl)cc2c2cc(C(F)(F)F)ccc12` (stereo not shown) [Halofantrine?HCl], the activation at 10 µM turned out to be 68.8%. Same read-out and setting: for `CCC(C)CNCC(=O)N1CCc2sccc2C1COc1cccc(C)c1` (stereo not shown) [RU-SKI-43] the value was 57.8%; for `CN(C)CCCOc1nn(Cc2ccccc2)c2ccccc12` [BENZYDAMINE HYDROCHLORIDE], 51.2%; for `CC(COc1ccccc1Cc1ccccc1)N1CCCCC1` (stereo not shown) [Benproperine Phosphate], 72%. On the same count and under the same terms, the value for `C[C@H](N)Cn1ccc2cc(F)c(Cl)cc21` [Ro-60-0175 fumarate] was 50.7%. `CN1CCN(C2=Cc3ccccc3Oc3ccc(Cl)cc32)CC1` [2-CMDO]: the activation at 10 µM is 61.3%.

The test is the same for the next values; noted with them: Chlorocebus sabaeus, Vero C1008, 24 h, read-out: PL_Result.
As for `Cn1ncc2c(N3CCOCC3)nc(-c3cccc(O)c3)nc21` [SPE_K15858023], the activation at 10 µM was -6.72%. Regarding `NC(C(=O)O)c1nnn[nH]1` (stereo not shown) [SPE_A14757586], the activation at 10 µM was -5.28%. Still for that read-out and setting: the value for `Cc1cccc(NC(=O)c2ccc(C(F)(F)F)cc2C(=O)O)n1` [SPE_K47816470] was -2.17%; that for `Oc1nc(-c2ccc(C(F)(F)F)cc2)nc2c1CSCC2` [SPE_K12762134] was -6.13%. `O=C1CCCN1CC#CCN1CCCC1` [SPE_K21936341]: the activation at 10 µM is -3.09%.

Regarding `CCCCc1nn(-c2ccccc2C(F)(F)F)c(=O)n1Cc1ccc(-c2ccccc2S(=O)(=O)NC(=O)c2sccc2C)cc1` [SPE_K39733634], the activation at 10 µM was -1.37%.

For the compound `C[C@H](NC(=O)/C(C#N)=C/c1cccc(Br)n1)c1ccccc1` [SPE_K05445342], the activation at 10 µM came out at 3.2%. On to `CN(C)C(=N)NCCC[C@H](N)C(=O)O` [SPE_K36269323], for which the activation at 10 µM is -6.39%. Take `CN1CCC[C@@H]1Cc1c[nH]c2ccc(CCS(=O)(=O)c3ccccc3)cc12` [SPE_K30652337]: the activation at 10 µM worked out at 1.82%. On the same count and under the same terms, for `CCOC(=O)Nc1ccc2c(c1)N(C(=O)CCN(CC)CC)c1ccccc1S2` [SPE_K10667240] the value was -10.8%; for `CN1CCC(=C2c3ccccc3CC(=O)c3sccc32)CC1` [SPE_K28936863], -4.71%. Still for that read-out and setting: for `COc1nc(C)cnc1NS(=O)(=O)c1cccnc1-c1ccc(-c2nnco2)cc1` [SPE_K31553034] the value was -4.16%; for `Clc1ccc(Nc2nnc(Cc3ccncc3)c3ccccc23)cc1` [SPE_K70163715], -2.12%. Regarding `CC[N+](CC)(CC)CCOc1ccc(/C=C/c2ccccc2)cc1` [SPE_K03128577], the activation at 10 µM amounted to 8.41%. With `O=C(O)c1ccc(-c2c[nH]c3ncc(-c4ccccc4)cc23)cc1C1CCCC1` [SPE_K14991967], the activation at 10 µM is -4.54%. Same read-out and setting: the value for `N=C(N)NC(=O)c1cnccn1` [SPE_K61693562] was -1.49%. Take `C=C[C@@]1(C)CC(=O)[C@@]2(O)[C@](C)(O1)[C@@H](OC(C)=O)[C@@H](O)C1C(C)(C)CC[C@H](O)[C@@]12C` (stereo partly shown) [SPE_A55416093]: the activation at 10 µM was -12.3%. The same measure, in the same setting: for `C=C1C(=O)O[C@@H]2[C@H]3O[C@]3(C)CC/C=C(\C)CC[C@@H]12` [SPE_K28120222] the value was -7.03%. `Oc1cc(O)cc(/C=C/c2ccc(O)c(O)c2)c1` [SPE_K91509126]: the activation at 10 µM was found to be 9.23%. Still for that read-out and setting: the value for `C[C@]12CC[C@H]3[C@@H](CCC4=CC(=O)CC[C@@]43C)[C@@H]1CC[C@@H]2C(=O)CO` [SPE_K98521173] was -5.9%; that for `Fc1ccc(-c2c3cccc(C(F)(F)F)c3nn2Cc2ccc(F)cc2Cl)cc1` [SPE_K54520417] was -2.25%; that for `CNCCc1ccc(O)c(O)c1` [SPE_K33151569] was -7.82%. Regarding `CN(C)c1ccc(C(=C2C=CC(=[N+](C)C)C=C2)c2ccc(N(C)C)cc2)cc1` [SPE_K60025295], the activation at 10 µM amounted to 5.79%. Still for that read-out and setting: for `COC(=O)CCC(=O)CN` [SPE_K01292611] the value was -7.57%; for `Oc1ccc([C@H]2COc3cc(O)ccc3C2)cc1` [SPE_K54847683], -12.7%; for `O=C1c2ccccc2C(Cc2ccnc(F)c2)(Cc2ccnc(F)c2)c2ccccc21` [SPE_K89274813], -6.43%. Same read-out and setting: for `CC(C)S(=O)(=O)NC[C@H](C)c1ccc(-c2ccc(CCNS(C)(=O)=O)cc2)cc1` [SPE_K42981054] the value was -11.8%.

With `COc1ccc(CNC(=O)Nc2ncc([N+](=O)[O-])s2)cc1` [SPE_K67860401], the activation at 10 µM is -8.12%.

Take `CC(C)OC(=O)c1cc2c(OCC(O)CNC(C)(C)C)cccc2[nH]1` (stereo not shown) [SPE_A15530910]: the activation at 10 µM is 15.8%. For the compound `CC(C)(S)C(=O)N[C@@H](CS)C(=O)O` [SPE_K24697665], the activation at 10 µM is -4.72%. Turning to `C[N+]12CCC(CC1)C(OC(=O)C(O)(c1ccccc1)c1ccccc1)C2` (stereo not shown) [SPE_A46066006], the activation at 10 µM is 2.01%. Turning to `Cc1ncc(CO)c(C=O)c1O` [SPE_K76204040], the activation at 10 µM was -1.79%. Consider `NCCCCN` [SPE_K75282878], for which the activation at 10 µM amounted to 0.35%. On to `CCS(=O)(=O)N1CCC[C@@H]2CN3CCc4cc(OC)ccc4[C@@H]3C[C@@H]21` [SPE_K86600316], for which the activation at 10 µM is -8.68%. The same measure, in the same setting: the value for `Nc1ncnc2c1ncn2[C@@H]1O[C@H](CO)C[C@H]1O` [SPE_K65428967] was -10.4%; that for `CCN(CCCOc1ccc2c(Nc3cc(CC(=O)Nc4cccc(F)c4)[nH]n3)ncnc2c1)CCOP(=O)(O)O` [SPE_K31928526] was -11.2%. As to `C[C@H](NC(=O)[C@@H](O)c1cc(F)cc(F)c1)C(=O)N[C@@H]1C(=O)N(C)c2ccccc2-c2ccccc21` [SPE_K20013301], the activation at 10 µM is -13.5%. In the case of `OC[C@H]1O[C@@H](OCCc2ccc(O)cc2)[C@H](O)[C@@H](O)[C@@H]1O` [SPE_K66030860], the activation at 10 µM is -4.58%.

Consider `COc1ccc(C2C(=O)c3ccccc3C2=O)cc1` [SPE_K47458712], for which the activation at 10 µM was -11.2%. The same measure, in the same setting: the value for `NC[C@H]1O[C@H](O[C@H]2[C@H](O)[C@@H](O[C@H]3O[C@H](CO)[C@@H](O)[C@H](N)[C@H]3O)[C@H](N)C[C@@H]2N)[C@H](N)C[C@@H]1O` [SPE_K96342952] was -3.75%; that for `NCCCCCCCCCCNS(=O)(=O)c1cccc2c(Cl)cccc12` [SPE_K03301001] was 2.75%; that for `CC(C)NCC(O)c1ccc(O)c(O)c1` (stereo not shown) [SPE_A04322457] was -1.28%. The same measure, in the same setting: the value for `C[C@H](NC(=O)CNC(=O)c1cccc(Cl)c1)c1ccccc1` [SPE_K19482962] was -10.5%; that for `NCc1cc(O)no1` [SPE_K60441002] was -7.28%; that for `C[C@]12CC[C@H](O)C[C@H]1CC[C@@H]1[C@@H]2CC[C@]2(C)[C@@](O)(c3ccoc3)CC[C@]12O` [SPE_K11672787] was -0.921%. The same measure, in the same setting: for `COc1ccc(OC)c(C(O)CNC(=O)CN)c1` (stereo not shown) [SPE_A79981887] the value was 8.02%. On to `C=CCN1CC[C@]23c4c5ccc(O)c4O[C@H]2[C@@H](OCCOCCOCCOCCOCCOCCOCCOC)CC[C@@]3(O)[C@H]1C5` [SPE_K41458421], for which the activation at 10 µM is -3.45%. Same read-out and setting: the value for `NCC(CS(=O)(=O)O)c1ccc(Cl)cc1` (stereo not shown) [SPE_A24122750] was -1.21%. Take `NC1CCN(c2c(F)cc3c(=O)c(C(=O)O)cn(C4CC4)c3c2Cl)C1` (stereo not shown) [SPE_A93964801]: the activation at 10 µM is -2.8%.

On to `COc1cnc(NS(=O)(=O)c2ccc(N)cc2)nc1` [SPE_K87492696], for which the activation at 10 µM is -0.356%. As for `Fc1ccc(Cl)cc1-c1nc(Nc2ccncc2)c2nccnc2n1` [SPE_K24566386], the activation at 10 µM was -5.24%. On the same count and under the same terms, for `CC(C)c1c(NC(=O)Nc2ccc(Cl)cc2)c(=O)n(-c2ccccc2)n1C` [SPE_K16497916] the value was -9.16%; for `O=C1NC(c2cccc([N+](=O)[O-])c2)=CCN1c1ccccc1O` [SPE_K48869804], 1.47%; for `Cc1cccc(C)c1NC(=O)C(C)N` (stereo not shown) [SPE_A92670106], -8.17%.

The next test relates to A549-ACE2 cells. Description: cells. Format: cell-based.
Details: not given
`COc1ccc2[nH]c3c(-c4cccc5ccccc45)nccc3c2c1` [SP-141, reference compound] returned a result_KI of -11.253 percent effect. Same read-out and setting: for `CCc1cc(Cl)c(OC)c(C(=O)NC[C@@H]2CCCN2CC)c1O` [eticlopride, reference compound] the value was 92.2773 percent effect.

Still in this test, the particulars now being: A549-ACE2, 24 h, read-out: PLD_Effect(%) A549-ACE2.
As to `CN(CCc1ccc(Cl)c(Cl)c1)CCN1CCCC1` [BD-1008], the activation at 10 µM came out at 62.5%. Same read-out and setting: for `O=C(O[C@H]1CN2CCC1CC2)N(Cc1cc(F)c(F)c(F)c1)c1cccc(F)c1` [Tarafenacin (D-tartrate)] the value was 91.5%; for `O=C(CN1C2=NCCN2c2ccccc21)c1ccc(-c2ccccc2)cc1` [CCT-031374], 69.9%. Turning to `CCSc1ccc2c(c1)N(CCCN1CCN(C)CC1)c1ccccc1S2` [thiethylperazine], the activation at 10 µM came out at 98%. As to `COc1cccc(CCc2ccccc2OCC[C@@H]2C[C@@H](O)CN2C)c1` [R-96544], the activation at 10 µM came to 92.6%. Take `CCCCN(CCCC)CCC(O)c1cc2c(Cl)cc(Cl)cc2c2cc(C(F)(F)F)ccc12` (stereo not shown) [Halofantrine?HCl]: the activation at 10 µM was found to be 77.7%. The same measure, in the same setting: for `CCC(C)CNCC(=O)N1CCc2sccc2C1COc1cccc(C)c1` (stereo not shown) [RU-SKI-43] the value was 85.5%; for `CN(C)CCCOc1nn(Cc2ccccc2)c2ccccc12` [BENZYDAMINE HYDROCHLORIDE], 65.2%; for `CC(COc1ccccc1Cc1ccccc1)N1CCCCC1` (stereo not shown) [Benproperine Phosphate], 81.6%. Consider `C[C@H](N)Cn1ccc2cc(F)c(Cl)cc21` [Ro-60-0175 fumarate], for which the activation at 10 µM came out at 82.7%.

`CN1CCN(C2=Cc3ccccc3Oc3ccc(Cl)cc32)CC1` [2-CMDO]: the activation at 10 µM amounted to 92.5%.
